Test results published in US9062124B2, “GIP-based mixed agonists for treatment of metabolic disorders and obesity” (priority 2008, dated 2015).
Like-named read-outs stand apart in the source and are kept apart here. Where a SMILES comes first, the peptide text is derived from it. Bridges are numbered along the chain shown (N, C = ends). Where no end group is shown, it is not given here. [ ]: non-standard residue; d: D form. The star is where a group is joined. PEG 40 kDa = PEG (40 kDa) covalently attached to Cys; Palmitoyl = CCCCCCCCCCCCCCCC(=O)*; Aib = CC(C)(N)C(=O)O

Tests used:
Format in all cases: cell-based
GLP-1 receptor = molecular target: T1, GLP-1 receptor (Homo sapiens, UniProt P43220); assay: cAMP synthesis functional assay (firefly luciferase reporter in HEK293 cells), GLP-1 receptor
T1 construct: expressed in transfected cells; host or cells: HEK293
T1 sequence (P43220 24-463, species assumed): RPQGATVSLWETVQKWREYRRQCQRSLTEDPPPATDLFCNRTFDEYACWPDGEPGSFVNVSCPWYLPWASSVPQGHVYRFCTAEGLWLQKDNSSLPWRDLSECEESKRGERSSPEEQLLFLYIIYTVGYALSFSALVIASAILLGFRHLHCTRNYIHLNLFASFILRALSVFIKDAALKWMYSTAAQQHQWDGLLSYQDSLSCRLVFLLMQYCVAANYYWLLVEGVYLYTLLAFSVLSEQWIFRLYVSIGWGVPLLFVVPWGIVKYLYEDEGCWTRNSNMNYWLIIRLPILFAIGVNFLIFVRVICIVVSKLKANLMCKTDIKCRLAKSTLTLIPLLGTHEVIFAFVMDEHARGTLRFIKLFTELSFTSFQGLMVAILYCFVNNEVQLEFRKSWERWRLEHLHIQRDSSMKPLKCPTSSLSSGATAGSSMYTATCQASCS

glucagon receptor = molecular target: T2, glucagon receptor (Homo sapiens, UniProt P47871); assay: cAMP synthesis functional assay (firefly luciferase reporter in HEK293 cells), glucagon receptor
T2 construct: expressed in transfected cells; host or cells: HEK293
T2 sequence (P47871 26-477): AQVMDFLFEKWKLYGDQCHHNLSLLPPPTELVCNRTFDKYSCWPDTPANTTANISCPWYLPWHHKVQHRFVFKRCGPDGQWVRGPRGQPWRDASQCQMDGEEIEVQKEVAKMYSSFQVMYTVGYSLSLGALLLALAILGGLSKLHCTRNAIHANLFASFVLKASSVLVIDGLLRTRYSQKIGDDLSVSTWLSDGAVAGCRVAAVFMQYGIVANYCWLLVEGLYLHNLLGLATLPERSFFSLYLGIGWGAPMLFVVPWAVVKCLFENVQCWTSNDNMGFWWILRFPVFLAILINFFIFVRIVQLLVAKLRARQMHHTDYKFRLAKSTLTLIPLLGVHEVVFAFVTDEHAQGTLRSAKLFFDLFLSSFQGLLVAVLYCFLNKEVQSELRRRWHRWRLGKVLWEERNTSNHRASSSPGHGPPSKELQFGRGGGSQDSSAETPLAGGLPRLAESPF

GIP receptor = molecular target: T3, GIP receptor (Homo sapiens, UniProt P48546); assay: cAMP synthesis functional assay (firefly luciferase reporter in HEK293 cells), GIP receptor
T3 construct: expressed in transfected cells; host or cells: HEK293
T3 sequence (P48546 22-466): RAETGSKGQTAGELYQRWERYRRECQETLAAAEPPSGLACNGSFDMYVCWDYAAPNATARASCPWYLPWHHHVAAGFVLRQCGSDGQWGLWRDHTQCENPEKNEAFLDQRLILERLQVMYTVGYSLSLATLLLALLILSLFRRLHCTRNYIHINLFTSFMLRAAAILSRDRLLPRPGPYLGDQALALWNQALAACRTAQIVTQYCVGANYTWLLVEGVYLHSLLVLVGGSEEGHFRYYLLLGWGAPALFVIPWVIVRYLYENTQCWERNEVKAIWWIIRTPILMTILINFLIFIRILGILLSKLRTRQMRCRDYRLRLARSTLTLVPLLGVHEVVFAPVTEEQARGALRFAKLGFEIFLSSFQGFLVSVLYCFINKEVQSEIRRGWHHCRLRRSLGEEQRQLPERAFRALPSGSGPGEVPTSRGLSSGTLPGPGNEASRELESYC

[1] = GLP-1 Receptor EC50, cAMP luciferase reporter assay as in Example 16
[2] = relative to the standard (Std.) EC50 of the same run
[3] = Glucagon Receptor EC50, cAMP luciferase reporter assay as in Example 16
[4] = GIP Receptor EC50, cAMP luciferase reporter assay as in Example 16
[5] = Table 1, relative to the native hormone of the indicated receptor
[6] = Table 4, relative to the native hormone

Compound	EC50 (GLP-1 receptor; [1]) [nM]	GLP-1 Receptor relative activity (GLP-1 receptor; [2]) [%]	Glucagon Receptor relative activity (glucagon receptor; [2]) [%]	EC50 (GIP receptor; [4]) [nM]	GIP Receptor relative activity (GIP receptor; [2]) [%]	GLP-1 Receptor relative activity (GLP-1 receptor; [5]) [%]	Glucagon Receptor relative activity (glucagon receptor; [5]) [%]	GIP Receptor relative activity (GIP receptor; [5]) [%]	other results
CCCCCCCCCCCCCC(=O)NCCCC[C@@H](NC(=O)[C@H](CO)NC(=O)[C@@H]1CCCN1C(=O)[C@@H]1CCCN1C(=O)[C@@H]1CCCN1C(=O)[C@H](C)NC(=O)CNC(=O)[C@H](CO)NC(=O)[C@H](CO)NC(=O)[C@@H]1CCCN1C(=O)CNC(=O)CNC(=O)[C@H](C)NC(=O)[C@H](CC(C)C)NC(=O)[C@H](CC(C)C)NC(=O)[C@H](Cc1c[nH]c2ccccc12)NC(=O)[C@H](CS)NC(=O)[C@@H](NC(=O)[C@H](Cc1ccccc1)NC(=O)[C@H](CCC(=O)O)NC(=O)C(C)(C)NC(=O)[C@H](C)NC(=O)[C@H](C)NC(=O)[C@H](CCC(N)=O)NC(=O)[C@H](CCCCN)NC(=O)[C@H](CC(=O)O)NC(=O)[C@H](CC(C)C)NC(=O)[C@H](Cc1ccc(O)cc1)NC(=O)[C@@H](NC(=O)[C@H](CO)NC(=O)[C@H](Cc1ccc(O)cc1)NC(=O)[C@H](CC(=O)O)NC(=O)[C@H](CO)NC(=O)[C@@H](NC(=O)[C@H](Cc1ccccc1)NC(=O)[C@@H](NC(=O)CNC(=O)[C@H](CCC(=O)O)NC(=O)C(C)(C)NC(=O)[C@@H](N)Cc1ccc(O)cc1)[C@@H](C)O)[C@@H](C)O)[C@@H](C)CC)C(C)C)C(N)=O [mt-333]	0.0028	85.71	2.80	0.0034	226.47	–	–	–	EC50 (glucagon receptor; [3]): 0.691 nM
CC(C)C[C@H](NC(=O)[C@H](CC(C)C)NC(=O)[C@H](Cc1c[nH]c2ccccc12)NC(=O)[C@H](CC(N)=O)NC(=O)[C@@H](NC(=O)[C@H](Cc1ccccc1)NC(=O)[C@H](CCC(=O)O)NC(=O)[C@@H]1CCCCNC(=O)CC[C@H](NC(=O)[C@H](CC(=O)O)NC(=O)[C@H](CC(C)C)NC(=O)[C@H](Cc2ccc(O)cc2)NC(=O)[C@@H]2CCCCNC(=O)CC[C@H](NC(=O)[C@H](CO)NC(=O)[C@@H](NC(=O)[C@H](Cc3ccccc3)NC(=O)[C@@H](NC(=O)CNC(=O)[C@H](CCC(N)=O)NC(=O)C(C)(C)NC(=O)[C@@H](N)Cc3ccc(O)cc3)[C@@H](C)O)[C@@H](C)O)C(=O)N[C@@H](Cc3ccc(O)cc3)C(=O)N[C@@H](CO)C(=O)N2)C(=O)N[C@@H](CCC(N)=O)C(=O)N[C@@H](C)C(=O)N[C@@H](C)C(=O)N1)C(C)C)C(=O)N[C@@H](C)C(=O)NCC(=O)NCC(=O)N1CCC[C@H]1C(=O)N[C@@H](CO)C(=O)N[C@@H](CO)C(=O)NCC(=O)N[C@@H](C)C(=O)N1CCC[C@H]1C(=O)N1CCC[C@H]1C(=O)N1CCC[C@H]1C(=O)N[C@@H](CO)C(=O)N[C@@H](CS)C(N)=O [mt-209] (H-Y[Aib]QGTFTSEYSKYLDEQAAKEFVNWLLAGGPSSGAPPPSC-NH2; lactam 9-12, 16-20; N-terminus assumed)	–	–	–	–	–	1.33	0.90	1.42	–
CCCCCCCCCCCCCCCC(=O)NCCCC[C@H](NC(=O)[C@H](CC(=O)O)NC(=O)[C@H](CO)NC(=O)[C@@H](NC(=O)[C@H](Cc1ccccc1)NC(=O)[C@@H](NC(=O)CNC(=O)[C@H](CCC(=O)O)NC(=O)C(C)(C)NC(=O)[C@@H](N)Cc1ccc(O)cc1)[C@@H](C)O)[C@@H](C)O)C(=O)N[C@@H](CO)C(=O)N[C@H](C(=O)N[C@@H](Cc1ccc(O)cc1)C(=O)N[C@@H](CC(C)C)C(=O)N[C@@H](CC(=O)O)C(=O)N[C@@H](CCCCN)C(=O)N[C@@H](CCC(N)=O)C(=O)N[C@@H](C)C(=O)N[C@@H](C)C(=O)NC(C)(C)C(=O)N[C@@H](CCC(=O)O)C(=O)N[C@@H](Cc1ccccc1)C(=O)N[C@H](C(=O)N[C@@H](CC(N)=O)C(=O)N[C@@H](Cc1c[nH]c2ccccc12)C(=O)N[C@@H](CC(C)C)C(=O)N[C@@H](CC(C)C)C(=O)N[C@@H](C)C(=O)NCC(=O)NCC(=O)N1CCC[C@H]1C(=O)N[C@@H](CO)C(=O)N[C@@H](CO)C(=O)NCC(=O)N[C@@H](C)C(=O)N1CCC[C@H]1C(=O)N1CCC[C@H]1C(=O)N1CCC[C@H]1C(=O)N[C@@H](CO)C(N)=O)C(C)C)[C@@H](C)CC [mt-270] (H-Y[Aib]EGTFTSDK(Palmitoyl)SIYLDKQAA[Aib]EFVNWLLAGGPSSGAPPPS-NH2; N-terminus assumed)	0.0093	211.83	0.06	0.0049	163.27	–	–	–	EC50 (glucagon receptor; [3]): 306 nM
mt-281 (Y[Aib]QGTFTSDYSIYLDKQAA[Aib]EFVC(PEG 40 kDa)WLLAG-NH2)	–	5.13	16.65	–	6.68	–	–	–	EC50 (GLP-1 receptor; read-out: GLP-1 Receptor EC50, cAMP luciferase reporter assay as in Example 16): 0.216 nM; EC50 (GIP receptor; read-out: GIP Receptor EC50, cAMP luciferase reporter assay as in Example 16): 0.4 nM
CC[C@H](C)[C@H](NC(=O)[C@H](CO)NC(=O)[C@H](Cc1ccc(O)cc1)NC(=O)[C@H](CC(=O)O)NC(=O)[C@H](CO)NC(=O)[C@@H](NC(=O)[C@H](Cc1ccccc1)NC(=O)[C@@H](NC(=O)CNC(=O)[C@H](CCC(N)=O)NC(=O)C(C)(C)NC(=O)[C@@H](N)Cc1ccc(O)cc1)[C@@H](C)O)[C@@H](C)CC)C(=O)N[C@@H](Cc1ccc(O)cc1)C(=O)N[C@@H](CC(C)C)C(=O)N[C@@H](CC(=O)O)C(=O)N[C@@H](CCCCN)C(=O)N[C@@H](CCC(N)=O)C(=O)N[C@@H](C)C(=O)N[C@@H](C)C(=O)NC(C)(C)C(=O)N[C@@H](CCC(=O)O)C(=O)N[C@@H](Cc1ccccc1)C(=O)N[C@H](C(=O)N[C@@H](CC(N)=O)C(=O)N[C@@H](Cc1c[nH]c2ccccc12)C(=O)N[C@@H](CC(C)C)C(=O)N[C@@H](CC(C)C)C(=O)N[C@@H](C)C(=O)NCC(=O)NCC(=O)N1CCC[C@H]1C(=O)N[C@@H](CO)C(=O)N[C@@H](CO)C(=O)NCC(=O)N[C@@H](C)C(=O)N1CCC[C@H]1C(=O)N1CCC[C@H]1C(=O)N1CCC[C@H]1C(=O)N[C@@H](CO)C(=O)N[C@@H](CCCCN)C(N)=O)C(C)C [mt-357] (H-Y[Aib]QGTFISDYSIYLDKQAA[Aib]EFVNWLLAGGPSSGAPPPSK-NH2; N-terminus assumed)	–	–	–	–	–	–	–	–	GLP-1 Receptor relative activity (GLP-1 receptor; [6]): 0.86%; Glucagon Receptor relative activity (glucagon receptor; [6]): 260.92%; GIP Receptor relative activity (GIP receptor; [6]): 206.37%
CC[C@H](C)[C@H](NC(=O)[C@H](CO)NC(=O)[C@H](CCCCN)NC(=O)[C@H](CC(=O)O)NC(=O)[C@H](CO)NC(=O)[C@@H](NC(=O)[C@H](Cc1ccccc1)NC(=O)[C@@H](NC(=O)CNC(=O)[C@H](CCC(=O)O)NC(=O)C(C)(C)NC(=O)[C@@H](N)Cc1ccc(O)cc1)[C@@H](C)O)[C@@H](C)O)C(=O)N[C@@H](Cc1ccc(O)cc1)C(=O)N[C@@H](CC(C)C)C(=O)N[C@@H](CC(=O)O)C(=O)N[C@@H](CCCCN)C(=O)N[C@@H](CCC(N)=O)C(=O)N[C@@H](C)C(=O)N[C@@H](C)C(=O)NC(C)(C)C(=O)N[C@@H](CCC(=O)O)C(=O)N[C@@H](Cc1ccccc1)C(=O)N[C@H](C(=O)N[C@@H](CS)C(=O)N[C@@H](Cc1c[nH]c2ccccc12)C(=O)N[C@@H](CC(C)C)C(=O)N[C@@H](CC(C)C)C(=O)N[C@@H](C)C(=O)NCC(=O)NCC(=O)N1CCC[C@H]1C(=O)N[C@@H](CO)C(=O)N[C@@H](CO)C(=O)NCC(=O)N[C@@H](C)C(=O)N1CCC[C@H]1C(=O)N1CCC[C@H]1C(=O)N1CCC[C@H]1C(=O)N[C@@H](CO)C(N)=O)C(C)C [mt-338] (H-Y[Aib]EGTFTSDKSIYLDKQAA[Aib]EFVCWLLAGGPSSGAPPPS-NH2; N-terminus assumed)	0.226	2.70	0.01	0.0234	39.32	–	–	–	–
CC(C)C[C@H](NC(=O)[C@H](CC(C)C)NC(=O)[C@H](Cc1c[nH]c2ccccc12)NC(=O)[C@H](CC(N)=O)NC(=O)[C@@H](NC(=O)[C@H](Cc1ccccc1)NC(=O)[C@H](CCC(=O)O)NC(=O)[C@H](CCCCN)NC(=O)[C@H](C)NC(=O)[C@H](C)NC(=O)[C@H](CCC(N)=O)NC(=O)[C@@H]1CCC(=O)NCCCC[C@H](NC(=O)[C@H](CO)NC(=O)[C@H](Cc2ccc(O)cc2)NC(=O)[C@H](CC(=O)O)NC(=O)[C@H](CO)NC(=O)[C@@H](NC(=O)[C@H](Cc2ccccc2)NC(=O)[C@@H](NC(=O)CNC(=O)[C@H](CCC(N)=O)NC(=O)[C@H](CO)NC(=O)[C@@H](N)Cc2ccc(O)cc2)[C@@H](C)O)[C@@H](C)O)C(=O)N[C@@H](Cc2ccc(O)cc2)C(=O)N[C@@H](CC(C)C)C(=O)N[C@@H](CC(=O)O)C(=O)N1)C(C)C)C(=O)N[C@@H](C)C(=O)NCC(=O)NCC(=O)N1CCC[C@H]1C(=O)N[C@@H](CO)C(=O)N[C@@H](CO)C(=O)NCC(=O)N[C@@H](C)C(=O)N1CCC[C@H]1C(=O)N1CCC[C@H]1C(=O)N1CCC[C@H]1C(=O)N[C@@H](CO)C(N)=O [mt-155] (H-YSQGTFTSDYSKYLDEQAAKEFVNWLLAGGPSSGAPPPS-NH2; lactam 12-16; N-terminus assumed)	–	–	–	–	–	98.99	10.93	7.02	EC50 (glucagon receptor; Glucagon Receptor EC50, nM, Table 1): 1.28 nM
mt-202: glucagon analog peptide, C-terminal amide (Y[Aib]QGTFVSDYSIYLDEQAAKEFVNWLLAGGPSSGAPPPSC(PEG 40 kDa)-NH2; lactam 16-20)	–	–	–	–	–	0.18	2.84	1.32	EC50 (GLP-1 receptor; read-out: GLP-1 Receptor EC50, Table 1): 15.7 nM; EC50 (glucagon receptor; read-out: Glucagon Receptor EC50, Table 1): 2.36 nM; EC50 (GIP receptor; read-out: GIP Receptor EC50, Table 1): 2.2 nM
